{"source": "patent US20180140578A1", "about": "“METHODS AND COMPOSITIONS FOR THE DIAGNOSIS AND SELECTIVE TREATMENT OF CANCER” (Board of Regents of the University of Texas System, priority 2016, published 2018)", "key": {"DCAF15−/− H1155 cells": {"tested_on": "DCAF15−/− H1155 cells", "experiment": "Cell viability assay, DCAF15−/− cells", "assay_type": "cell-based, human", "conditions": "at concentrations as high as 50 μM", "experimental": "12-point dose responses were performed on 96-well assay plates with cell plating (1500-4000 cell per well) on day 1, compound addition on day 2, and survival measurement on day 5. Compounds were diluted in DMSO before adding to the cells. Final DMSO concentration was 0.5%. Cell survival assay was performed using CellTiter-Glo Luminescent Cell Viability Assay kit (Promega) that measures cellular ATP content. Luminescence was recorded by EnVison multimode plate reader (Perkin Elmer). IC50 was determined with GraphPad Prism using baseline correction (by normalizing to DMSO control), the asymmetric (five parameter) equation and least squares fit.\n(§1) Two independent guide RNAs targeting DDB1, DDA1, DCAF15 were cloned into PX459. 0.2 million H1155 RBM39-AcGFP cells were transfected with PX459 sgRNA constructs and selected with 2 μg/ml puromycin to enrich for transfected cells. […] Cells were then trypsinized and the expression of RBM39-AGFP was quantified with flow cytometry. H1155 cells transfected with DCAF15 guide RNA were sparsely plated on 10 cm^2 plates and clones were isolated. Genomic DNA sequence flanking the cut site were amplified and sequenced to identify DCAF15−/− clones."}, "[1]": {"tested_on": "tumors derived from parental HCT-116 cells", "experiment": "Mouse xenograft model, parental HCT-116", "assay_type": "in vivo, Nod-Scid IL-2Rγ KO mice", "experimental": "All animal work was approved by the Institutional Animal Care and Use Committee at UTSW. UTSW is accredited by the Association for Assessment and Accreditation of Laboratory Animal Care International (AAALAC). Animals were obtained from the UTSW Breeding Core Facility. Nod-Scid IL-2Rγ KO mice were implanted with 5 million parental HCT-116 cells or HCT-116 cells expressing RBM39 G268V in a volume of 0.1 ml in the left flank. Tumor volumes were measured every 2-4 days with calipers. Volume is calculated as (L*W^2)*3.14)/6."}, "[2]": {"tested_on": "RBM39 in DCAF15−/− H1155 cells", "experiment": "RBM39 degradation in DCAF15−/− cells (western blotting)", "assay_type": "cell-based, human", "experimental": "Proteins were resolved on SDS-PAGE and transferred to 0.5 μm nitrocellulose membranes. Membranes were blocked in 5% milk TBST for 30 min, and then anti-RBM39 antibodies (HPA001591, Sigma-Aldrich) were added in 5% milk (1:5000) and incubated on a shaker overnight at 4° C. After three 5 min washes with TBST, membranes were incubated with HRP-conjugated goat anti-rabbit secondary antibody (Bio-Rad) for 2 hr at room temperature. After three 5 min washes with TBST, membranes were developed with ECL (enhanced chemiluminescence) substrates.\nas §1"}, "[3]": {"target": "T1, DCAF15-3xFLAG and RBM39Δ150 (Homo sapiens, UniProt Q14498+Q66K64)", "T1 construct": "Full-length cDNAs encoding CUL4A, CUL4B, DCAF15, and DDB1 were cloned into pLVX IRES Puro; made in house; host or cells: RBM39Δ150: Sf9 (baculovirus); DCAF15-3xFLAG: anti-FLAG beads from HCT-116 or 293T cells stably expressing it", "T1 sequence (Q66K64 whole entry, stated change not applied)": "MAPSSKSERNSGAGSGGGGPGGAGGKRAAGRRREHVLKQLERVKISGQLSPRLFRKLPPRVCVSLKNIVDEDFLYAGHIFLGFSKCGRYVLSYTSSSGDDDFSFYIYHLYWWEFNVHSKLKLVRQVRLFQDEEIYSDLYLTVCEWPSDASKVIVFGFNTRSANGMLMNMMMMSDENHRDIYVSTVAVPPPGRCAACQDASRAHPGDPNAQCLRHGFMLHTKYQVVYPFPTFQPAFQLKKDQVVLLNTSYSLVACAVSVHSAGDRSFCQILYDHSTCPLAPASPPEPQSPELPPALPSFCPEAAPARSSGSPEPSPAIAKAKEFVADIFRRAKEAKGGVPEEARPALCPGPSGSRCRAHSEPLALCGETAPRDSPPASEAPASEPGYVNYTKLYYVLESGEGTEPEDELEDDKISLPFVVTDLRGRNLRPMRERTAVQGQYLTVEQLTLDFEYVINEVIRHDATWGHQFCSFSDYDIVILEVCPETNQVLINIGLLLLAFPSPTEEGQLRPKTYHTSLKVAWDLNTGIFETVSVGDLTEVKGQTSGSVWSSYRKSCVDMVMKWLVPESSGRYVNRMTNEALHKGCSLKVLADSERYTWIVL", "T1 sequence (Q14498 151-530 limits assumed, stated change not applied)": "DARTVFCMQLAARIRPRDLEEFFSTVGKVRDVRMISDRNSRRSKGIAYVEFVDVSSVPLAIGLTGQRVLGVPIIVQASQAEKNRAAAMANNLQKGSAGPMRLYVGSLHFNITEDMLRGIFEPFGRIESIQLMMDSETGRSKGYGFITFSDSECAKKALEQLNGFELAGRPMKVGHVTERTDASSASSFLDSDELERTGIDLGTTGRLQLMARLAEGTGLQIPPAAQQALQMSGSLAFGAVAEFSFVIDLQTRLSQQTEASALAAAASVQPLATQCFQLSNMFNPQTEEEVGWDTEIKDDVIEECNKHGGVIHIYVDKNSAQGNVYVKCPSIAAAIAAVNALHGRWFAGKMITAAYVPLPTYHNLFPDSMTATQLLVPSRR", "T1 sequence (Q16531 whole entry partner)": "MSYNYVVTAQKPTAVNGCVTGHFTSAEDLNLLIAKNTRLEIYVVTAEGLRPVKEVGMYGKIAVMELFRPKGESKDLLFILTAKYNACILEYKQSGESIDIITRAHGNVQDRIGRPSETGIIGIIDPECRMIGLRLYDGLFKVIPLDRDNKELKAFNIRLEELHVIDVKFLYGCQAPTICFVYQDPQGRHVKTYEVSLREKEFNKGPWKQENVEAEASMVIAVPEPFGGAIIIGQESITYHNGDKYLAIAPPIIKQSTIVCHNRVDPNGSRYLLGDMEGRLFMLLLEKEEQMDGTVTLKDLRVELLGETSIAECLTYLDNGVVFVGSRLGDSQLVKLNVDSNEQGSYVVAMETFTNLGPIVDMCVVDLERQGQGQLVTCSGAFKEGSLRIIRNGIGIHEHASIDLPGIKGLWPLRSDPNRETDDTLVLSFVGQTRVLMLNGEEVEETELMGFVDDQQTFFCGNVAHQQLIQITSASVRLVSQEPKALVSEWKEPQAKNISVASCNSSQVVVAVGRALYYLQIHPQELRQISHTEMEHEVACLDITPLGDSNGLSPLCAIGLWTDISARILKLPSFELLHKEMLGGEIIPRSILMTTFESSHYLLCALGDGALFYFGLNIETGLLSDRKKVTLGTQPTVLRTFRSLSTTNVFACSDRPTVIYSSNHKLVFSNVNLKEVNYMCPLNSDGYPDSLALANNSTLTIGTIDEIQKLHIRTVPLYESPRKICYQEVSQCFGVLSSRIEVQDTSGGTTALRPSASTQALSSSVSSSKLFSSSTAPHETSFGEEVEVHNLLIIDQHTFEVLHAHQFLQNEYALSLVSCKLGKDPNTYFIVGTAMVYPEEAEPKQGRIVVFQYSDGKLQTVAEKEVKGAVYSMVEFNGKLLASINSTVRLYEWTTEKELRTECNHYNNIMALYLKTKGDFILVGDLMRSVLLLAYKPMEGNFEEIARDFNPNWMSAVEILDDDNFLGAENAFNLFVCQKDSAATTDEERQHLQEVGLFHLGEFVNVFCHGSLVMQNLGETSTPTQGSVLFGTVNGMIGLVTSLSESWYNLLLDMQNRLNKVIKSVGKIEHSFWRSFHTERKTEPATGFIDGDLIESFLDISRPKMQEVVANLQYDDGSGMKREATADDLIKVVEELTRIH", "experiment": "RBM39Δ150 pulldown assay", "assay_type": "binding", "experimental": "RBM39 lacking the first 150 amino acids after the start codon (RBM39Δ150) was cloned into the pFastBac1 (Life Technologies) vector. Site-directed Mutagenesis of RBM39 was performed using Q5 site-directed mutagenesis kit (NEB). DCAF15-GST (C-terminal GST tag) and DDB1 were also cloned into pFastBac1. The production of baculovirus was carried out following vendor's instructions. Protein was expressed in SF9 cells by infection with each protein specific baculovirus, and cells were harvested 48 hr later and frozen in liquid nitrogen. For purification of RBM39Δ150, frozen cells were pulverized by cryomill and resuspended in lysis buffer (40 mM Tris, pH 7.5, 225 mM NaCl, 1× […] Protease inhibitor). The lysate was passed through a 22 gauge needle 2 times followed by ultracentrifugation at 25000 rpm for 30 min. Clarified lysate was incubated with Ni-NTA agarose (Qiagen) for 30 min with rotation at 4° C. Resin and bound protein were washed with wash buffer 1 (40 mM Tris, pH 7.5, 225 mM NaCl) followed by wash buffer 2 (40 mM Tris, pH 7.5, 20 mM imidazole, 225 mM NaCl). Proteins were eluted with elution buffer (40 mM Tris, pH 7.5, 300 mM imidazole, 225 mM NaCl) and concentrated to 0.5 ml. Concentrated proteins were then fractionated on Superdex 200 Increase 10/300 GL (GE Healthcare). RBM39Δ150 and mutants eluted at 14.8 ml after injection and were stored at −80° C. in 40 mM Tris, pH 7.5, 225 mM NaCl. For purification of DCAF15-GST/DDB1, Sf9 cells co-infected with DCAF15-GST and DDB1 baculoviruses were lysed in PBS supplemented with 0.1% NP40, 1× […] Protease inhibitors, and 0.5 mM PMSF. The lysate was passed through a 22 gauge needle 2 times followed by centrifugation at 7000 rpm for 15 min. Clarified lysate was incubated with Glutathione Sepharose 4B resin (GE healthcare) for 30 min with rotation at 4° C. Resin was washed with PBS for three times before elution with 50 mM Tris, 10 mM glutathione, pH 8.\nHCT-116 cells stably expressing DDB1-3xFLAG, CUL4A-3xFLAG, CUL4B-3xFLAG, or to DCAF15-3xFLAG were lysed in 1×PBS, 0.1% NP40, and 1× […] protease inhibitor (1 ml per […] plate). […]"}, "758 cancer cell lines": {"tested_on": "758 cancer cell lines", "conditions": "CTD2 AUC values; cited from earlier work"}, "[4]": {"conditions": "advanced stage patients with solid tumors; monotherapy; cited from earlier work"}}, "note": "Entries after “also recorded” stand apart in the source; their conditions may differ.", "data": [{"smiles": "NS(=O)(=O)c1ccc(S(=O)(=O)Nc2cccc3c(Cl)c[nH]c23)cc1", "note": "[Indisulam, indisulam]", "values": [{"measurement": "sensitivity of DCAF15−/− cells", "setting": "DCAF15−/− H1155 cells", "value": "insensitive"}, {"measurement": "tumor response", "setting": "[1]; 25 mg/kg indisulam intravenous once a day for eight days", "value": "complete regression; also recorded: regress"}, {"measurement": "Average maximal weight loss from start of therapy to 1 day post final dose", "setting": "[1]; parental HCT-116 xenograft, 25 mg/kg once a day for eight days", "value": 5.2, "unit": "%"}, {"measurement": "RBM39 degradation in response to indisulam", "setting": "[2]", "value": "failed to degrade RBM39"}, {"measurement": "co-purification of DCAF15 with RBM39Δ150", "setting": "[3]; in the presence of indisulam, not DDB1, CUL4A or CUL4B", "value": "co-purified"}, {"measurement": "indisulam concentration at which RBM39Δ150-DCAF15 complex was apparent", "setting": "[3]; wild type RBM39Δ150", "value": 0.10, "unit": "µM"}, {"measurement": "sensitivity to indisulam amongst hematopoietic and lymphoid (HL) lineage cell lines", "setting": "758 cancer cell lines", "value": "significantly enriched"}, {"measurement": "stable disease", "setting": "[4]", "value": "17-36 % of patients"}]}]}
